Where two headings read alike, the source gives them in different places.
Experiments:
Fasciola hepatica [1] = settings: cited from earlier work; for Efficacy against Fasciola hepatica, first fasciola age span printed for the drug / Efficacy against Fasciola hepatica, second fasciola age span for the drug: sheep, recommended dose rates, span not recoverable from the grid; for Efficacy against Fasciola hepatica, first fasciola age span printed for the drug: first (younger) age span in weeks; for Efficacy against Fasciola hepatica, second fasciola age span for the drug: second (older) age span in weeks
[2] = test system: mature and juvenile fasciola; settings: dose of 15 mg/Kg; previous studies; cited from earlier work
[3] = Stability studies in aqueous solution by UV-HPLC; type: physicochemical; settings: >95% by UV-HPLC determined at room temperature
Experimental: Solutions were kept at room temperature (25° C.) for 26 hours (24 hour for TCBZ), and 5 mL of the samples were later diluted in 10 mL of water and analyzed by UV-HPLC.

[4] = Studies of aqueous solubility (method reported by Yalkowski); type: physicochemical; settings: determined at 25° C.
Experimental: Sample was stirred at room temperature for 48 hours until reaching equilibrium between the two phases. The tube was then centrifuged at 4500 rpm for minutes at room temperature. […] Its concentration was then determined in a spectrophotometer at 350 nm.

Fasciola hepatica [5] = experiment: In-vitro evaluation of fasciolicide efficacy on artificially excysted fasciola; type: cell-based
Experimental: In order to evaluate the anti-fasciola effect of compounds 5 and 6 as mixture of regioisomers, artificially excysted fasciola were used (approximately six hours after excystment), according to the disclosure by Ibarra and Jenkins, (1984). Briefly, recently excysted fasciola are suspended in 90 ml of Roswell Park Memorial Institute (RPMI)-1640® culture media plus 90 ml of bovine serum and 1.5 ml of antibiotics (Penicillin and Streptomycin) at a density of 100 individuals/ml.
5 mg of experimental compound was used and placed in a universal bottle (30 ml capacity), to which 0.1 ml of methanol was added to dissolve the compound. From this point, required dilutions are carried out with distilled water to prepare concentrations of 50 and 10 mg/l.
24-well NUNC® culture dishes were used and 1.6 ml of culture medium (RPMI/bovine serum), 0.2 ml of the compound concentration to be tested and 0.2 ml of RPMI containing 10 fasciola per well are placed into each well. Control wells which contain fasciola without compound are used per each dish, further including a control group with a reference drug (Triclabendazole-Fasinex®-Novartis). Each concentration is carried out three times. Each sample remains under incubation at 37° C. during 4 days under a 5% CO2 atmosphere.
Fasciola under study are examined at 24, 48 and 72 hours post-exposure to compound through an inverted microscope at 40×. Extract activity is measured by comparing survival of treated fasciola with control group fasciola. All procedures are carried out under aseptic conditions in a laminar flow hood.
Efficacy is measured by using the following formula (Abbott, 2004): % Efficacy=[Fasciola in control group−Fasciola in treated group]/[[…]]
The extract is considered to have fasciolicide activity when showing an in vitro efficacy higher than 80%. (Ibarra & Jenkins, 1984; Elango & Rahuman, 2011; Ibarra et al, 2013).

[6] = cited from earlier work
[7] = TCBZ solubility reported in literature; cited from earlier work
[8] = 24 h, read-out: EFFICACY (%) 1st Test, mortality percentage
[9] = 24 h, read-out: EFFICACY (%) 2nd Test, mortality percentage
[10] = 24 h, read-out: EFFICACY (%) 3rd Test, mortality percentage
[11] = 24 h, read-out: EFFICACY (%) Average, mortality percentage
[12] = 48 h, read-out: EFFICACY (%) 1st Test, mortality percentage
[13] = 48 h, read-out: EFFICACY (%) 2nd Test, mortality percentage
[14] = 48 h, read-out: EFFICACY (%) 3rd Test, mortality percentage
[15] = 48 h, read-out: EFFICACY (%) Average, mortality percentage
[16] = 72 h, read-out: EFFICACY (%) 1st Test, mortality percentage
[17] = 72 h, read-out: EFFICACY (%) 2nd Test, mortality percentage
[18] = 72 h, read-out: EFFICACY (%) 3rd Test, mortality percentage
[19] = 72 h, read-out: EFFICACY (%) Average, mortality percentage

CCCSc1ccc2nc(NC(=O)OC)[nH]c2c1 [Albendazole]
efficacy over Fasciola hepatica (Fasciola hepatica [1]; fasciola age weeks 10-11): 50-70%
efficacy over Fasciola hepatica (Fasciola hepatica [1]; fasciola age weeks 12-14): 80-90%

CSc1nc2cc(Oc3cccc4ccccc34)c(Cl)cc2[nH]1 [Alpha compound, 5-Chloro-2-(methylthio)-6-(1-naphthyloxy)-1H-benzimidazole]
efficacy against mature and juvenile fasciola [2]: 86.9%
Aqueous solubility (h) pH 7 [chemical stability] [3]: >26 h
Aqueous solubility pH 7 [4]: 2.6×10^−4 mg/mL

Nc1cc(C(Cl)=C(Cl)Cl)c(S(N)(=O)=O)cc1S(N)(=O)=O [Closuron]
Efficacy against Fasciola hepatica, first fasciola age span printed for the drug (Fasciola hepatica [1]): 90-99%

CC(=O)Nc1ccc(OCCOCCOc2ccc(NC(C)=O)cc2)cc1 [Diamphenetide]
efficacy in adult fasciola (Fasciola hepatica [1]; 7-week adult fasciola): not being effective
Efficacy against Fasciola hepatica, first fasciola age span printed for the drug (Fasciola hepatica [1]): 91-100%
Efficacy against Fasciola hepatica, second fasciola age span for the drug (Fasciola hepatica [1]): 50-80%

O=C(Nc1ccc(Oc2ccc(Cl)cc2)c(Cl)c1)c1cc(I)cc(I)c1O [Rafoxanide]
Efficacy against Fasciola hepatica, second fasciola age span for the drug (Fasciola hepatica [1]): 91-99%

CSc1nc2cc(Oc3cccc(Cl)c3Cl)c(Cl)cc2[nH]1 [Triclabendazole]
mortality at 10 µg/mL (Fasciola hepatica [5]; [8]): 100%
mortality at 50 µg/mL (Fasciola hepatica [5]; [8]): 100%
mortality at 10 µg/mL (Fasciola hepatica [5]; [9]): 100%
mortality at 50 µg/mL (Fasciola hepatica [5]; [9]): 100%
mortality at 10 µg/mL (Fasciola hepatica [5]; [10]): 100%
mortality at 50 µg/mL (Fasciola hepatica [5]; [10]): 100%
mortality at 10 µg/mL (Fasciola hepatica [5]; [11]): 100%
mortality at 50 µg/mL (Fasciola hepatica [5]; [11]): 100%
mortality at 10 µg/mL (Fasciola hepatica [5]; [12]): 100%
mortality at 50 µg/mL (Fasciola hepatica [5]; [12]): 100%
mortality at 10 µg/mL (Fasciola hepatica [5]; [13]): 100%
mortality at 50 µg/mL (Fasciola hepatica [5]; [13]): 100%
mortality at 10 µg/mL (Fasciola hepatica [5]; [14]): 100%
mortality at 50 µg/mL (Fasciola hepatica [5]; [14]): 100%
mortality at 10 µg/mL (Fasciola hepatica [5]; [15]): 100%
mortality at 50 µg/mL (Fasciola hepatica [5]; [15]): 100%
mortality at 10 µg/mL (Fasciola hepatica [5]; [16]): 100%
mortality at 50 µg/mL (Fasciola hepatica [5]; [16]): 100%
mortality at 10 µg/mL (Fasciola hepatica [5]; [17]): 100%
mortality at 50 µg/mL (Fasciola hepatica [5]; [17]): 100%
mortality at 10 µg/mL (Fasciola hepatica [5]; [18]): 100%
mortality at 50 µg/mL (Fasciola hepatica [5]; [18]): 100%
mortality at 10 µg/mL (Fasciola hepatica [5]; [19]): 100%
mortality at 50 µg/mL (Fasciola hepatica [5]; [19]): 100%
absorbed fraction of administered dose ([6]; orally administered): 5%
plasma levels of triclabendazole as sulfoxide ([6]; share of dose): 5%
removed in feces ([6]; share of dose): 92%
removed in milk ([6]; share of dose): 1%
removed in urine ([6]; share of dose): 2%
Aqueous solubility (h) pH 7 [chemical stability] [3]: >24 h
Aqueous solubility pH 7 [7]: 2.0 × 10^−4 mg/mL
Efficacy against Fasciola hepatica, second fasciola age span for the drug (Fasciola hepatica [1]): 91-99%
